Reference: patent US20250059174A1, “Pharmaceutical Compounds and Compositions as C-Kit Kinase Inhibitors” (Enanta Pharmaceuticals, Inc., priority 2023, published 2025)

Columns and labels:
[1] = target: Recombinant human c-KIT kinase (Homo sapiens (Human), UniProt P10721); experiment: c-KIT kinase chemiluminescence assay (ADP-Glo); type: biochemical; conditions: ATP 50 μM
In short: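 ADP formed by c-KIT on polyEY over 2 h at RT (after 30 min enzyme preincubation; Tris pH 7.5, MgCl2, BSA, DTT buffer) was detected by ADP-Glo luminescence. IC50 and Hill slope were fitted to control-normalized activity across compound concentrations.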

[2] = test system: M-07e cells; experiment: M-07e cellular assay (SCF-mediated cell proliferation); type: cell-based; conditions: Homo sapiens, 72 hours, CellTiter Glo
Procedure: M-07e cells (Creative Bioarray, CSC-C0249) which endogenously express human c-KIT were used to evaluate the effect of compounds on stem cell factor (SCF)-mediated cell proliferation. M-07e cells were cultured in growth media (RPMI+10% FBS+1% penicillin/streptomycin+10 ng/mL GM-CSF) at 5E5-1.5E6 cells/mL, replenishing media every 3-4 days. 1.5E4 cells were seeded per well in 384 well tissue culture treated plates in 20 μL assay media (RPMI+[…]+1% penicillin/streptomycin) without growth factor stimulation and incubated at 37° C. in a CO2 humidity-controlled incubator. Twenty-four hours later, three-fold serially diluted test compounds in media containing SCF (at the previously determined EC90) were added to the plated M-07e cells and incubated for an additional 72 hours. Cell viability was determined by adding 25 μL CellTiter Glo (Promega) to the cells and the luminescence was measured using a Perkin Elmer Envision plate reader. The EC50 was determined using GraphPad Prism. Percent cell growth was determined after normalizing the curve to the mean RLU high control (no compound control wells) at 100% and the mean RLU low control (no SCF control wells) at 0%.

Sequence of Recombinant human c-KIT kinase (P10721 26-976): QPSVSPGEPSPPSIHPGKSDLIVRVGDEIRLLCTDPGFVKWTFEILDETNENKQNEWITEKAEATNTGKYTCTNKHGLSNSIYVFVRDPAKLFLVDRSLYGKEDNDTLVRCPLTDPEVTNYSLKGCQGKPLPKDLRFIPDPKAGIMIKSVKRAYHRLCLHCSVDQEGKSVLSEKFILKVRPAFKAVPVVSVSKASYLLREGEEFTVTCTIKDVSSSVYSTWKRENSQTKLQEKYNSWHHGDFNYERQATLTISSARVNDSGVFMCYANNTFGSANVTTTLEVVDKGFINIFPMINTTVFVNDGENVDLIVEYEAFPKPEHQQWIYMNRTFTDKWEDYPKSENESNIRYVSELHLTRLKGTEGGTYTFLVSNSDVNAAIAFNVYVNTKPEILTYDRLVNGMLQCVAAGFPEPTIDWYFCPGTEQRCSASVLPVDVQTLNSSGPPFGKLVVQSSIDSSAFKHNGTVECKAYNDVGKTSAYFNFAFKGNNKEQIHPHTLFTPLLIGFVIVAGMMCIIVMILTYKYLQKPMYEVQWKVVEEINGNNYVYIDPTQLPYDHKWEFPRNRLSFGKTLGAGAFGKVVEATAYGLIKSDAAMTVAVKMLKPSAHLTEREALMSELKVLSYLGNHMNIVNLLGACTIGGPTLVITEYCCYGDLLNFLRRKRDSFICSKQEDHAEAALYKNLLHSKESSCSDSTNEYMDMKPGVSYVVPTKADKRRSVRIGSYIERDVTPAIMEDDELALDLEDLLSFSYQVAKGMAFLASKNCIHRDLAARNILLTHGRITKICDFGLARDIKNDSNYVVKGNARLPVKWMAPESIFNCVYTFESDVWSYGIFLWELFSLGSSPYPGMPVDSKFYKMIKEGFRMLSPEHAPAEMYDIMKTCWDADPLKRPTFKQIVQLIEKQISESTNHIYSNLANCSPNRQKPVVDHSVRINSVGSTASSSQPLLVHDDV

Row | Compound | IC50 [1] [nM] | EC50 [2] [nM]
1 | Cc1ccc(-c2noc([C@H]3C[C@@H]3F)n2)cc1NC(=O)c1cnn2cc(-c3nn[nH]n3)ccc12 [Example 130] | 100 to 1000 | > 1000
2 | Cc1ccc(-c2noc([C@H]3C[C@@H]3F)n2)cc1NC(=O)c1cnn2ccc(-c3nnn(C)n3)cc12 [Example 131] | 100 to 1000 | < 100
3 | CC#Cc1ccc2c(C(=O)Nc3cc(-c4noc([C@H]5C[C@@H]5F)n4)ccc3C)cnn2c1 [Example 132-1] | < 100 | 100 to 1000
4 | CC#Cc1ccc2c(C(=O)Nc3cc(-c4noc([C@H]5C[C@@H]5F)n4)c(F)cc3C)cnn2c1 [Example 132-2] | 100 to 1000 | 100 to 1000
5 | Cc1ccc(-c2noc([C@H]3C[C@@H](OC(F)F)C3)n2)cc1NC(=O)c1cnn2cc(-c3cn(C(F)(F)C(=O)O)nn3)ccc12 [Example 132-3] | < 100 | > 1000
6 | Cc1ccc(-c2noc([C@H]3C[C@@H]3F)n2)cc1NC(=O)c1cnn2cc(-c3cn(C(F)(F)C(=O)O)nn3)ccc12 [Example 132-4] | < 100 | > 1000
7 | Cc1ncc(-c2noc([C@H]3C[C@@H]3F)n2)cc1NC(=O)c1cnn2cc(-c3cn(C(F)F)nn3)ccc12 [Example 132-5] | 100 to 1000 | < 100
8 | Cc1ncc(-c2noc([C@H]3C[C@@H](OC(F)(F)F)C3)n2)cc1NC(=O)c1cnn2cc(-c3cn(C(F)F)nn3)ccc12 [Example 132-6] | 100 to 1000 | < 100
9 | Cc1ncc(-c2noc(C3CC(F)(F)C3)n2)cc1NC(=O)c1cnn2cc(-c3cn(C(F)F)nn3)ccc12 [Example 132-7] | 100 to 1000 | 100 to 1000
10 | Cc1ncc(-c2noc([C@H]3C[C@@H](C(F)(F)F)C3)n2)cc1NC(=O)c1cnn2cc(-c3cn(C(F)F)nn3)ccc12 [Example 132-8] | < 100 | < 100
11 | Cc1ncc(-c2noc([C@H]3C[C@@H](OC(F)(F)F)C3)n2)cc1NC(=O)c1cnn2cc(-c3cn(CCO)nn3)ccc12 [Example 132-9] | < 100 | < 100
12 | Cc1ncc(-c2noc([C@H]3C[C@@H](OC(F)(F)F)C3)n2)cc1NC(=O)c1cnn2cc(-c3cn(CC(C)(C)O)nn3)ccc12 [Example 132-10] | 100 to 1000 | < 100
13 | Cc1ncc(-c2noc([C@H]3C[C@@H](OC(F)(F)F)C3)n2)cc1NC(=O)c1cnn2cc(-c3cn(CC4(C)COC4)nn3)ccc12 [Example 132-12] | < 100 | < 100
14 | Cc1ccc(-c2ncc(C3CC3)cn2)cc1NC(=O)c1cnn2cc(-c3cn(C(F)F)nn3)ccc12 [Example 132-13] | < 100 | < 100
15 | Cc1ccc(-c2ncc(C3CC3)cn2)cc1NC(=O)c1cnn2cc(-c3cn(CC(C)(C)O)nn3)ccc12 [Example 132-14] | < 100 | < 100
16 | COC(=O)N1CC(c2nc(-c3ccc(C)c(NC(=O)c4cnn5cc(-c6cn(C(F)F)nn6)ccc45)c3)no2)C1 [Example 132-15] | < 100 | < 100
17 | COC(=O)N1CC(c2nc(-c3cnc(C)c(NC(=O)c4cnn5cc(-c6cn(C(F)F)nn6)ccc45)c3)no2)C1 [Example 132-16] | 100 to 1000 | 100 to 1000
18 | COC(=O)N1CC(c2nc(-c3ccc(Cl)c(NC(=O)c4cnn5cc(-c6cn(C(F)F)nn6)ccc45)c3)no2)C1 [Example 132-17] | < 100 | < 100
19 | Cc1ccc(-c2noc([C@H]3C[C@@H]3F)n2)cc1NC(=O)c1cnn2ccc(-c3nnn(CC(C)(C)O)n3)cc12 [Example 132] | < 100 | < 100
20 | Cc1ccc(-c2noc([C@H]3C[C@@H]3F)n2)cc1NC(=O)c1cnn2ccc(-c3ccn(C(F)F)n3)cc12 [Example 135] | < 100 | 100 to 1000
21 | Cc1ccc(-c2noc([C@H]3C[C@@H]3F)n2)cc1NC(=O)c1cnn2ccc(-c3cnn(C4COC4)c3)cc12 [Example 136] | < 100 | < 100
22 | Cc1ccc(-c2noc([C@H]3C[C@@H]3F)n2)cc1NC(=O)c1cnn2ccc(-c3cnn(CCO)c3)cc12 [Example 138] | < 100 | < 100
23 | Cc1ccc(-c2noc([C@H]3C[C@@H]3F)n2)cc1NC(=O)c1cnn2ccc(-c3cnn(C(C)(C)CO)c3)cc12 [Example 140] | < 100 | < 100
24 | Cc1ccc(-c2noc([C@H]3C[C@@H]3F)n2)cc1NC(=O)c1cnn2ccc(-c3cnn(CC(C)(C)O)c3)cc12 [Example 142] | < 100 | < 100
25 | Cc1ccc(-c2noc([C@H]3C[C@@H]3F)n2)cc1NC(=O)c1cnn2cc(-c3c(C)nn(CC(C)(C)O)c3C)ccc12 [Example 144] | < 100 | < 100
